# Key:
# ACHN = assay: Cytotoxicity against human ACHN cells assessed as cell growth at 0.01 uM after 48 hrs by sulforhodamine B assay relative to control; assay type: functional; conditions: read-out: Activity
# HL-60(TB) [1] = assay: Cytotoxicity against human HL-60(TB) cells assessed as growth inhibition after 48 hrs by sulforhodamine B assay; assay type: functional; conditions: HL-60, 48 h
# MOLT-4 [2] = assay: Cytotoxicity against human MOLT4 cells assessed as cell growth at 1 uM after 48 hrs by sulforhodamine B assay relative to control; assay type: functional; conditions: MOLT-4, 48 h, read-out: Activity
# DU-145 = assay: Cytotoxicity against human DU145 cells assessed as cell growth at 0.01 uM after 48 hrs by sulforhodamine B assay relative to control; assay type: functional; conditions: DU-145, 48 h, read-out: Activity
# HOP-62 [3] = assay: Cytotoxicity against human HOP62 cells assessed as cell growth at 10 uM after 48 hrs by sulforhodamine B assay relative to control; assay type: functional; conditions: HOP-62, 48 h, read-out: Activity
# TK-10 = assay: Cytotoxicity against human TK10 cells assessed as cell growth at 10 uM after 48 hrs by sulforhodamine B assay relative to control; assay type: functional; conditions: TK-10, 48 h, read-out: Activity
# IGROV-1 [4] = assay: Cytotoxicity against human IGROV1 cells assessed as cell growth at 10 uM after 48 hrs by sulforhodamine B assay relative to control; assay type: functional; conditions: IGROV-1, 48 h, read-out: Activity
# UACC-257 [5] = assay: Cytotoxicity against human UACC257 cells assessed as cell growth at 1 uM after 48 hrs by sulforhodamine B assay relative to control; assay type: functional; conditions: UACC-257, 48 h, read-out: Activity
# HOP-62 [6] = assay: Cytotoxicity against human HOP62 cells assessed as cell growth at 0.1 uM after 48 hrs by sulforhodamine B assay relative to control; assay type: functional; conditions: HOP-62, 48 h, read-out: Activity
# 786-0 [7] = assay: Cytotoxicity against human 786-0 cells assessed as cell growth at 100 uM after 48 hrs by sulforhodamine B assay relative to control; assay type: functional; conditions: 786-0, 48 h, read-out: Activity
# A549 = assay: Cytotoxicity against human A549/ATCC cells assessed as cell growth at 1 uM after 48 hrs by sulforhodamine B assay relative to control; assay type: functional; conditions: A549, 48 h, read-out: Activity
# NCI/ADR-RES = assay: Cytotoxicity against human NCI/ADR-RES cells assessed as cell growth at 10 uM after 48 hrs by sulforhodamine B assay relative to control; assay type: functional; conditions: read-out: Activity
# MOLT-4 [8] = assay: Cytotoxicity against human MOLT4 cells assessed as cell growth at 10 uM after 48 hrs by sulforhodamine B assay relative to control; assay type: functional; conditions: MOLT-4, 48 h, read-out: Activity
# SK-MEL-5 = assay: Cytotoxicity against human SK-MEL-5 cells assessed as cell growth at 100 uM after 48 hrs by sulforhodamine B assay relative to control; assay type: functional; conditions: SK-MEL-5, 48 h, read-out: Activity
# MDA-MB-231 [9] = assay: Cytotoxicity against human MDA-MB-231 cells assessed as cell growth at 100 uM after 48 hrs by sulforhodamine B assay relative to control; assay type: functional; conditions: MDA-MB-231, 48 h, read-out: Activity
# SK-MEL-28 [10] = assay: Cytotoxicity against human SK-MEL-28 cells assessed as growth inhibition after 48 hrs by sulforhodamine B assay; assay type: functional; conditions: SK-MEL-28, 48 h
# HL-60(TB) [11] = assay: Cytotoxicity against human HL-60(TB) cells assessed as cell growth at 10 uM after 48 hrs by sulforhodamine B assay relative to control; assay type: functional; conditions: HL-60, 48 h, read-out: Activity
# 786-0 [12] = assay: Cytotoxicity against human 786-0 cells assessed as cell growth at 0.1 uM after 48 hrs by sulforhodamine B assay relative to control; assay type: functional; conditions: 786-0, 48 h, read-out: Activity
# UACC-257 [13] = assay: Cytotoxicity against human UACC257 cells assessed as cell growth at 0.01 uM after 48 hrs by sulforhodamine B assay relative to control; assay type: functional; conditions: UACC-257, 48 h, read-out: Activity
# A498 = assay: Cytotoxicity against human A498 cells assessed as cell growth at 10 uM after 48 hrs by sulforhodamine B assay relative to control; assay type: functional; conditions: A498, 48 h, read-out: Activity
# SF-539 = assay: Cytotoxicity against human SF539 cells assessed as growth inhibition after 48 hrs by sulforhodamine B assay; assay type: functional; conditions: SF-539, 48 h
# IGROV-1 [14] = assay: Cytotoxicity against human IGROV1 cells assessed as growth inhibition after 48 hrs by sulforhodamine B assay; assay type: functional; conditions: IGROV-1, 48 h
# SN12C [15] = assay: Cytotoxicity against human SN12C cells assessed as cell growth at 0.01 uM after 48 hrs by sulforhodamine B assay relative to control; assay type: functional; conditions: read-out: Activity
# SK-MEL-28 [16] = assay: Cytotoxicity against human SK-MEL-28 cells assessed as cell growth at 1 uM after 48 hrs by sulforhodamine B assay relative to control; assay type: functional; conditions: SK-MEL-28, 48 h, read-out: Activity
# PC-3 [17] = assay: Cytotoxicity against human PC3 cells assessed as cell growth at 0.01 uM after 48 hrs by sulforhodamine B assay relative to control; assay type: functional; conditions: PC-3, 48 h, read-out: Activity
# SR = assay: Cytotoxicity against human SR cells assessed as cell growth at 1 uM after 48 hrs by sulforhodamine B assay relative to control; assay type: functional; conditions: read-out: Activity
# NCI-H460 = assay: Cytotoxicity against human NCI-H460 cells assessed as growth inhibition after 48 hrs by sulforhodamine B assay; assay type: functional; conditions: NCI-H460, 48 h
# SN12C [18] = assay: Cytotoxicity against human SN12C cells assessed as cell growth at 10 uM after 48 hrs by sulforhodamine B assay relative to control; assay type: functional; conditions: read-out: Activity
# RXF 393 = assay: Cytotoxicity against human RXF393 cells assessed as cell growth at 1 uM after 48 hrs by sulforhodamine B assay relative to control; assay type: functional; conditions: RXF 393, 48 h, read-out: Activity
# UACC-62 = assay: Cytotoxicity against human UACC62 cells assessed as cell growth at 1 uM after 48 hrs by sulforhodamine B assay relative to control; assay type: functional; conditions: UACC-62, 48 h, read-out: Activity
# SK-OV-3 = assay: Cytotoxicity against human SKOV3 cells assessed as cell growth at 1 uM after 48 hrs by sulforhodamine B assay relative to control; assay type: functional; conditions: SK-OV-3, 48 h, read-out: Activity
# SK-MEL-28 [19] = assay: Cytotoxicity against human SK-MEL-28 cells assessed as cell growth at 10 uM after 48 hrs by sulforhodamine B assay relative to control; assay type: functional; conditions: SK-MEL-28, 48 h, read-out: Activity
# CCRF-CEM = assay: Cytotoxicity against human CCRF-CEM cells assessed as cell growth at 0.1 uM after 48 hrs by sulforhodamine B assay relative to control; assay type: functional; conditions: read-out: Activity
# NCI-H23 = assay: Cytotoxicity against human NCI-H23 cells assessed as cell growth at 0.1 uM after 48 hrs by sulforhodamine B assay relative to control; assay type: functional; conditions: NCI-H23, 48 h, read-out: Activity
# PC-3 [20] = assay: Cytotoxicity against human PC3 cells assessed as cell growth at 1 uM after 48 hrs by sulforhodamine B assay relative to control; assay type: functional; conditions: PC-3, 48 h, read-out: Activity
# MDA-MB-231 [21] = assay: Cytotoxicity against human MDA-MB-231 cells assessed as growth inhibition after 48 hrs by MTT assay; assay type: functional, cell-based; conditions: MDA-MB-231, 48 h
structure (smiles),measurement,setting,value
COc1cc2c(cc1OC)C(=O)/C(=C/c1cc(-c3ccc4c(c3)OCO4)n[nH]1)C2,growth at 0.01 µM,ACHN,104%
same,GI50,HL-60(TB) [1],2.07 µM
same,LC50,HL-60(TB) [1],> 100 µM
same,TGI,HL-60(TB) [1],5.59 µM
same,growth at 1 µM,MOLT-4 [2],97%
same,growth at 0.01 µM,DU-145,102%
same,growth at 10 µM,HOP-62 [3],-92%
same,growth at 10 µM,TK-10,-95%
same,growth at 10 µM,IGROV-1 [4],-44%
same,growth at 1 µM,UACC-257 [5],94%
same,growth at 0.1 µM,HOP-62 [6],100%
same,growth at 100 µM,786-0 [7],-93%
same,growth at 1 µM,A549,83%
same,growth at 10 µM,NCI/ADR-RES,-17%
same,growth at 10 µM,MOLT-4 [8],-18%
same,growth at 100 µM,SK-MEL-5,-97%
same,growth at 100 µM,MDA-MB-231 [9],-96%
same,GI50,SK-MEL-28 [10],1.89 µM
same,LC50,SK-MEL-28 [10],6.09 µM
same,TGI,SK-MEL-28 [10],3.4 µM
same,growth at 10 µM,HL-60(TB) [11],-29%
same,growth at 0.1 µM,786-0 [12],98%
same,growth at 0.01 µM,UACC-257 [13],93%
same,growth at 10 µM,A498,-84%
same,GI50,SF-539,1.27 µM
same,LC50 (concentration killing 50% of cells),SF-539,5.22 µM
same,TGI,SF-539,2.57 µM
same,GI50,IGROV-1 [14],1.89 µM
same,LC50,IGROV-1 [14],14.3 µM
same,TGI,IGROV-1 [14],4.58 µM
same,growth at 0.01 µM,SN12C [15],95%
same,growth at 1 µM,SK-MEL-28 [16],105%
same,growth at 0.01 µM,PC-3 [17],94%
same,growth at 1 µM,SR,38%
same,GI50,NCI-H460,1.68 µM
same,LC50,NCI-H460,8.57 µM
same,TGI,NCI-H460,3.79 µM
same,growth at 10 µM,SN12C [18],-96%
same,growth at 1 µM,RXF 393,80%
same,growth at 1 µM,UACC-62,89%
same,growth at 1 µM,SK-OV-3,109%
same,growth at 10 µM,SK-MEL-28 [19],-92%
same,growth at 0.1 µM,CCRF-CEM,96%
same,growth at 0.1 µM,NCI-H23,93%
same,growth at 1 µM,PC-3 [20],65%
same,IC50,MDA-MB-231 [21],1.6 µM
COc1ccc(C(=O)/C=C/c2cc(-c3cc(OC)c(OC)c(OC)c3)n[nH]2)cc1OC,growth at 0.01 µM,ACHN,101%
same,LC50,HL-60(TB) [1],80.2 µM
same,TGI,HL-60(TB) [1],4.18 µM
same,growth at 1 µM,MOLT-4 [2],88%
same,growth at 0.01 µM,DU-145,104%
same,growth at 10 µM,HOP-62 [3],-97%
same,growth at 10 µM,TK-10,100%
same,growth at 10 µM,IGROV-1 [4],-84%
same,growth at 1 µM,UACC-257 [5],81%
same,growth at 0.1 µM,HOP-62 [6],100%
same,growth at 100 µM,786-0 [7],-84%
same,growth at 1 µM,A549,84%
same,growth at 10 µM,NCI/ADR-RES,10%
same,growth at 10 µM,MOLT-4 [8],-30%
same,growth at 100 µM,SK-MEL-5,-92%
same,growth at 100 µM,MDA-MB-231 [9],-84%
same,LC50,SK-MEL-28 [10],6.25 µM
same,TGI,SK-MEL-28 [10],3.34 µM
same,growth at 10 µM,HL-60(TB) [11],-41%
same,growth at 0.1 µM,786-0 [12],94%
same,growth at 0.01 µM,UACC-257 [13],85%
same,growth at 10 µM,A498,-87%
same,GI50,SF-539,1.27 µM
same,LC50 (concentration killing 50% of cells),SF-539,5.31 µM
same,TGI,SF-539,2.6 µM
same,LC50,IGROV-1 [14],6.48 µM
same,TGI,IGROV-1 [14],3.41 µM
same,growth at 0.01 µM,SN12C [15],99%
same,growth at 1 µM,SK-MEL-28 [16],96%
same,growth at 0.01 µM,PC-3 [17],96%
same,growth at 1 µM,SR,11%
same,LC50,NCI-H460,7.86 µM
same,TGI,NCI-H460,3.33 µM
same,growth at 10 µM,SN12C [18],-82%
same,growth at 1 µM,RXF 393,72%
same,growth at 1 µM,UACC-62,95%
same,growth at 1 µM,SK-OV-3,100%
same,growth at 10 µM,SK-MEL-28 [19],-88%
same,growth at 0.1 µM,CCRF-CEM,94%
same,growth at 0.1 µM,NCI-H23,94%
same,growth at 1 µM,PC-3 [20],71%
same,IC50,MDA-MB-231 [21],0.62 µM
